Results as given in ChEMBL document CHEMBL1146977, “Taxoid from the needles of the Himalayan yew Taxus wallichiana with cytotoxic and immunomodulatory activities” (Bioorg Med Chem Lett, 2006).
≈ marks a conversion by molar mass, not a printed value.

What was measured:
Format in all cases: functional, cell-based
MCF7 [1] = assay: Cytotoxicity against human MCF7 cells by MTT assay
MCF7 [2] = assay: Cytotoxicity against human MCF7 cells by clonogenic assay
WRL68 [3] = assay: Cytotoxicity against human WRL68 cells by MTT assay
WRL68 [4] = assay: Cytotoxicity against human WRL68 cells by clonogenic assay
KB [5] = assay: Cytotoxicity against human KB cells by MTT assay
KB [6] = assay: Cytotoxicity against human KB cells by clonogenic assay
PA-1 [7] = assay: Cytotoxicity against human PA1 cells by MTT assay
PA-1 [8] = assay: Cytotoxicity against human PA1 cells by clonogenic assay
COLO 320DM [9] = assay: Cytotoxicity against human Colo320DM cells by MTT assay
COLO 320DM [10] = assay: Cytotoxicity against human Colo320DM cells by clonogenic assay

Compound | IC50 (MCF7 [1]) [µg/mL] | IC50 (MCF7 [2]) [µg/mL] | IC50 (WRL68 [3]) [µg/mL] | IC50 (WRL68 [4]) [µg/mL] | IC50 (KB [5]) [µg/mL] | IC50 (KB [6]) [µg/mL] | IC50 (PA-1 [7]) [µg/mL] | IC50 (PA-1 [8]) [µg/mL] | IC50 (COLO 320DM [9]) [µg/mL] | IC50 (COLO 320DM [10]) [µg/mL]
C=C1[C@H]2C[C@]3(O)C[C@H](OC(C)=O)C(C)=C([C@@H](OC(C)=O)[C@H](OC(C)=O)[C@]2(C)[C@@H](OC(C)=O)C[C@@H]1O)C3(C)C | 0.18 (≈ 0.335 µM) | 8.42 (≈ 15.7 µM) | 1.65 (≈ 3.07 µM) | 12.8 (≈ 23.9 µM) | 0.04 (≈ 0.0745 µM) | 1.23 (≈ 2.29 µM) | 0.01 (≈ 0.0186 µM) | 0.85 (≈ 1.58 µM) | 0.23 (≈ 0.429 µM) | 1.82 (≈ 3.39 µM)
CC[C@]1(O)C[C@@H]2CN(CCc3c([nH]c4ccccc34)[C@@](C(=O)OC)(c3cc4c(cc3OC)N(C)[C@H]3[C@@](O)(C(=O)OC)[C@H](OC(C)=O)[C@]5(CC)C=CCN6CC[C@]43[C@@H]65)C2)C1 [VINBLASTINE] | 0.02 (≈ 0.0247 µM) | 0.22 (≈ 0.271 µM) | 1.45 (≈ 1.79 µM) | 2.6 (≈ 3.21 µM) | 0.046 (≈ 0.0567 µM) | 0.46 (≈ 0.567 µM) | 0.025 (≈ 0.0308 µM) | 1.15 (≈ 1.42 µM) | 0.52 (≈ 0.641 µM) | 1.6 (≈ 1.97 µM)
CC[C@]1(O)C[C@H]2CN(CCc3c([nH]c4ccccc34)[C@@](C(=O)OC)(c3cc4c(cc3OC)N(C=O)[C@H]3[C@@](O)(C(=O)OC)[C@H](OC(C)=O)[C@]5(CC)C=CCN6CC[C@]43[C@@H]65)C2)C1 [VINCRISTINE] | 0.05 (≈ 0.0606 µM) | 0.15 (≈ 0.182 µM) | 1.42 (≈ 1.72 µM) | 8.5 (≈ 10.3 µM) | 0.02 (≈ 0.0242 µM) | 0.25 (≈ 0.303 µM) | 0.01 (≈ 0.0121 µM) | 1 (≈ 1.21 µM) | 0.46 (≈ 0.558 µM) | 1.5 (≈ 1.82 µM)
